From patent US20160002204A1 (Board of Regents, The University of Texas System, priority 2014, published 2016)

Columns and labels:
[1] = biological target: T1, GLS1 (purified recombinant human GAC) (Homo sapiens, UniProt O94925); assay: GLS1 enzymatic activity assay (dual-coupled, Amplex UltraRed/resorufin); format: biochemical
T1 sequence (O94925 55-598 isoform O94925-3 limits assumed): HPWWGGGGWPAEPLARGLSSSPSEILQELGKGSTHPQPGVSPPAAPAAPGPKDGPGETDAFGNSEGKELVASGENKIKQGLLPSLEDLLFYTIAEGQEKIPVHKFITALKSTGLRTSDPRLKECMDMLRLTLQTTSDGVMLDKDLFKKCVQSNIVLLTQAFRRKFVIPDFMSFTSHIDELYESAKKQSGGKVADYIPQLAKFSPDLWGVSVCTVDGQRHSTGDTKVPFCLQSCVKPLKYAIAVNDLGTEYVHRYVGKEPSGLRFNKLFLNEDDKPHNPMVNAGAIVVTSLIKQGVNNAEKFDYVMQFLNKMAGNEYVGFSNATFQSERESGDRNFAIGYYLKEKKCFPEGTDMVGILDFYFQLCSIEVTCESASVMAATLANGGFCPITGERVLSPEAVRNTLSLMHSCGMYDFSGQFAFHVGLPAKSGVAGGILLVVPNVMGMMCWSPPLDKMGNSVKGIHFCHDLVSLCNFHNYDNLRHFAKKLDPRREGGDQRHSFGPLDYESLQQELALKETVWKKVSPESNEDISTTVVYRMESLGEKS
Method: GLS1 Enzymatic Activity Assay
The inhibition of purified recombinant human GAC by varying concentrations of inhibitors is assessed via a dual-coupled enzymatic assay. The glutamate produced by the glutaminase reaction is used by glutamate oxidase to produce α-ketoglutarate, ammonia, and hydrogen peroxide, with this hydrogen peroxide subsequently being used by horseradish peroxidase to produce resorufin in the presence of Amplex UltraRed. The assay buffer consisted of 50 mM Hepes (pH 7.4), 0.25 mM EDTA and 0.1 mM Triton X-100. GAC was incubated with potassium phosphate (10 minutes at room temperature) prior to incubation with inhibitor (10 minutes at room temperature). The final reaction conditions were as follows: 2 nM GAC, 50 mM potassium phosphate, 100 mU/mL glutamate oxidase (Sigma), 1 mM glutamine (Sigma), 100 mU/mL horseradish peroxidase (Sigma), 75 μM Amplex UltraRed (Life Technologies), and 1% (v/v) DMSO. The production of resorufin was monitored on a Perkin Elmer Envision plate reader (excitation 530 nm, emission 590 nm) either in a kinetics or endpoint mode (at 20 minutes). IC50 values were calculated using a four-parameter logistic curve fit.

[2] = tested on: A549 cells; assay: A549 proliferation (viability) assay, Cell Titer Fluor, 72 hours; format: cell-based; conditions: Homo sapiens
Method: A549 cells were routinely maintained in RPMI 1640 media (Gibco catalog number 11875-093) supplemented with 10% dialyzed fetal bovine serum using a humidified incubator (37° C., 5% CO2 and ambient O2). In preparation for the viability assay, cells were inoculated into 384-well black CulturPlates (Perkin Elmer) at a density of 1000 cells/well in a volume of 40 uL. Following a 24-hour incubation at 37° C., 5% CO2 and ambient O2, cells were treated with compound (10 uL) in a final DMSO concentration of 0.5% (v/v). The microplates were then incubated for 72 hours (37° C., 5% CO2 and ambient O2). Cell Titer Fluor (Promega) was subsequently added (10 uL of 6× reagent) and mixed for 15 minutes at room temperature. The plates were then incubated for 30 minutes (37° C., 5% CO2 and ambient O2) and fluorescence was subsequently read on the Perkin Elmer Envision plate reader. EC50 values were calculated using a four-parameter logistic curve fit.

| IC50 [1] [nM] | EC50 [2] [nM] | SMILES |
| --- | --- | --- |
| 500 to 5000 | > 5000 | Cc1ccn(CCCCn2cc(C(=O)NCc3cccc(OC(F)(F)F)c3)nn2)c(=O)c1 [Example 11, 1-(4-(4-methyl-2-oxopyridin-1(2H)-yl)butyl)-N-(3-(trifluoromethoxy)benzyl)-1H-1,2,3-triazole-4-carboxamide] |
| < 100 | < 100 | O=C(Cc1ccccc1)Nc1ccn(CCC(F)Cn2cc(C(=O)NCc3cc(OC(F)(F)F)ccc3F)nn2)c(=O)c1 (stereo not drawn) [Example 12, 1-(2-fluoro-4-(2-oxo-4-(2-phenylacetamido)pyridin-1(2H)-yl)butyl)-N-(2-fluoro-5-(trifluoromethoxy)benzyl)-1H-1,2,3-triazole-4-carboxamide] |
| < 100 | < 100 | O=C(Cc1ccccc1)Nc1ccn(CC(F)CCn2cc(C(=O)NCc3cc(OC(F)(F)F)ccc3F)nn2)c(=O)c1 (stereo not drawn) [Example 13, 1-(3-fluoro-4-(2-oxo-4-(2-phenylacetamido)pyridin-1(2H)-yl)butyl)-N-(2-fluoro-5-(trifluoromethoxy)benzyl)-1H-1,2,3-triazole-4-carboxamide] |
| < 100 | < 100 | O=C(Cc1ccccc1)Nc1ccn(CCCCc2ccc(NC(=O)Cc3cccc(OC(F)(F)F)c3)nn2)c(=O)c1 [Example 14, N-(2-oxo-1-(4-(6-(2-(3-(trifluoromethoxy)phenyl)acetamido)pyridazin-3-yl)butyl)-1,2-dihydropyridin-4-yl)-2-phenylacetamide] |
| < 100 | > 5000 | O=C(Cc1ccccc1)Nc1ccn(CCCCn2ccc(NC(=O)Cc3ccccc3)nc2=O)c(=O)n1 [Example 15, N,N′-(butane-1,4-diylbis(2-oxo-1,2-dihydropyrimidine-1,4-diyl))bis(2-phenylacetamide)] |
| < 100 | 500 to 5000 | O=C(Cc1ccccc1)Nc1ccn(CCCCc2nnc(NC(=O)Cc3cccnc3)s2)c(=O)n1 [Example 16, N-(2-oxo-1-(4-(5-(2-(pyridin-3-yl)acetamido)-1,3,4-thiadiazol-2-yl)butyl)-1,2-dihydropyrimidin-4-yl)-2-phenylacetamide] |
| < 100 | > 5000 | O=C(Cc1ccccc1)Nc1ccn(CCCCc2nnc(NC(=O)[C@@H](O)c3ccccc3)s2)c(=O)n1 [Example 17, (S)-2-hydroxy-N-(5-(4-(2-oxo-4-(2-phenylacetamido)pyrimidin-1(2H)-yl)butyl)-1,3,4-thiadiazol-2-yl)-2-phenylacetamide] |
| 100 to 500 | > 5000 | CC(=O)Nc1ccn(CCCCc2nnc(NC(=O)Cc3ccccc3)s2)c(=O)n1 [Example 18] |
| < 100 | 100 to 500 | O=C(Cc1cccc(OC(F)(F)F)c1)Nc1ccn(CCCCc2nnc(NC(=O)Cc3ccccc3)s2)c(=O)n1 [Example 19, N-(2-oxo-1-{4-[5-(2-phenylacetamido)-1,3,4-thiadiazol-2-yl]butyl}-1,2dihydropyrimidin-4-yl)-2-[3-(trifluoromethoxy)phenyl]acetamide] |
| < 100 | < 100 | O=C(Cc1ccccc1)Nc1ccc(CCCCn2ccc(NC(=O)Cc3ccccc3)nc2=O)nn1 [Example 20, N-(2-oxo-1-(4-(6-(2-phenylacetamido)pyridazin-3-yl)butyl)-1,2-dihydropyrimidin-4-yl)-2-phenylacetamide] |
| < 100 | 500 to 5000 | O=C(Cc1ccccc1)Nc1ccc(CCCCn2ccc(NC(=O)[C@@H](O)c3ccccc3)nc2=O)nn1 [Example 22, (S)-2-hydroxy-N-(2-oxo-1-(4-(6-(2-phenylacetamido)pyridazin-3-yl)butyl)-1,2-dihydropyrimidin-4-yl)-2-phenylacetamide] |
| < 100 | 500 to 5000 | O=C(Cc1cccc(OC(F)(F)F)c1)Nc1ccc(CCCCn2ccc(NC(=O)NCc3ccccc3)nc2=O)nn1 [Example 23, N-(6-(4-(4-(3-benzylureido)-2-oxopyrimidin-1(2H)-yl)butyl)pyridazin-3-yl)-2-(3-(trifluoromethoxy)phenyl)acetamide] |
| < 100 | < 100 | O=C(Cc1cccc(OC(F)(F)F)c1)Nc1ccc(CCCCn2ccc(NC(=O)OCc3ccccc3)nc2=O)nn1 [Example 24, Benzyl(2-oxo-1-(4-(6-(2-(3-(trifluoromethoxy)phenyl)acetamido)pyridazin-3-yl)butyl)-1,2-dihydropyrimidin-4-yl)carbamate] |
| < 100 | 100 to 500 | O=C(Nc1ccn(CCCCc2nnc(C(=O)NCc3cccc(OC(F)(F)F)c3)s2)c(=O)n1)OCc1ccccc1 [Example 28, Benzyl 2-oxo-1-(4-(5-(3-(trifluoromethoxy)benzylcarbamoyl)-1,3,4-thiadiazol-2-yl)butyl)-1,2-dihydropyrimidin-4-ylcarbamate] |
| < 100 | > 5000 | O=C(Cc1ccccc1)Nc1nnc(CCCCn2cc3cc(Cc4ccccc4)[nH]c3nc2=O)s1 [Example 29, N-(5-(4-(6-benzyl-2-oxo-2,7-dihydro-3H-pyrrolo[2,3-d]pyrimidin-3-yl)butyl)-1,3,4-thiadiazol-2-yl)-7-phenylacetamide] |
| < 100 | 500 to 5000 | O=C(Cc1ccccc1)Nc1ccn(CCCCc2nnc(NC(=O)Cc3ccccc3)s2)c(=O)c1 [Example 31, N-(2-oxo-1-{4-[5-(2-phenylacetamido)-1,3,4-thiadiazol-2-yl]butyl}-1,2-dihydropyridin-4-yl)-2-phenylacetamide] |
| 500 to 5000 | > 5000 | CNC(=O)c1cn(CCCCn2ccc(NC(=O)Cc3ccccc3)cc2=O)nn1 [Example 32, N-methyl-1-{4-[2-oxo-4-(2-phenylacetamido)-1,2-dihydropyridin-1-yl]butyl}-1H-1,2,3-triazole-4-carboxamide] |
| < 100 | 100 to 500 | O=C(Cc1ccccc1)Nc1ccn(CCCCn2cc(C(=O)NCc3cccc(OC(F)(F)F)c3)nn2)c(=O)c1 [Example 33, 1-{4-[2-oxo-4-(2-phenylacetamido)-1,2-dihydropyridin-1-yl]butyl}-N-{[3-(trifluoromethoxy)phenyl]methyl}-1H-1,2,3-triazole-4-carboxamide] |
| 100 to 500 | > 5000 | O=C(Cc1ccccc1)Nc1ccn(CCCCn2cc(C(=O)NCc3ccccn3)nn2)c(=O)c1 [Example 34, 1-{4-[2-oxo-4-(2-phenylacetamido)-1,2-dihydropyridin-1-yl]butyl}-N-(pyridin-2-ylmethyl)-1H-1,2,3-triazole-4-carboxamide] |
| 500 to 5000 | > 5000 | CC(C)CNC(=O)c1cn(CCCCn2ccc(NC(=O)Cc3ccccc3)cc2=O)nn1 [Example 35, N-(2-methylpropyl)-1-{4-[2-oxo-4-(2-phenylacetamido)-1,2-dihydropyridin-1-yl]butyl}-1H-1,2,3-triazole-4-carboxamide] |
| 100 to 500 | 500 to 5000 | O=C(Cc1ccccc1)Nc1ccn(CCCCn2cc(C(=O)NCC3CCCCC3)nn2)c(=O)c1 [Example 36, N-(cyclohexylmethyl)-1-{4-[2-oxo-4-(2-phenylacetamido)-1,2-dihydropyridin-1-yl]butyl}-1H-1,2,3-triazole-4-carboxamide] |
| 500 to 5000 | > 5000 | CC(C)CC(=O)Nc1ccn(CCCCn2cc(C(=O)NCc3cccnc3)nn2)c(=O)c1 [Example 37, 1-{4-[4-(3-methylbutanamido)-2-oxo-1,2-dihydropyridin-1-yl]butyl}-N-(pyridin-3-ylmethyl)-1H-1,2,3-triazole-4-carboxamide] |
| 500 to 5000 | > 5000 | CC(C)CC(=O)Nc1ccn(CCCCn2cc(C(=O)NCc3ccccn3)nn2)c(=O)c1 [Example 38, 1-{4-[4-(3-methylbutanamido)-2-oxo-1,2-dihydropyridin-1-yl]butyl}-N-(pyridin-2-ylmethyl)-1H-1,2,3-triazole-4-carboxamide] |
| 100 to 500 | 500 to 5000 | CC(C)CC(=O)Nc1ccn(CCCCn2cc(C(=O)NCC3CCCCC3)nn2)c(=O)c1 [Example 39, N-(cyclohexylmethyl)-1-{4-[4-(3-methylbutanamido)-2-oxo-1,2-dihydropyridin-1-yl]butyl}-1H-1,2,3-triazole-4-carboxamide] |
